Experiments:
[1] = test system: Bscl2-GFP and Rtkn-GFP reporters in mouse embryonic stem (mES) cells; assay: ToxTracker genotoxicity assay, overall conclusion from Bscl2-GFP and Rtkn-GFP; conditions: positive: >= 2-fold induction at one of 10, 25, 50% cytotoxicity, with or without S9; not genotoxic: <= […] at all
Procedure: This methodology uses a two step-approach.
Metabolic was evaluated by addition of S9 liver extract. […] Only GFP expression in intact single cells is determined.

[2] = test system: Rtkn-GFP reporter in mouse embryonic stem (mES) cells; assay: ToxTracker genotoxicity assay, Rtkn-GFP reporter induction;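 also: GFP reporter signal quantified solely in intact single cells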
Procedure: (§1) The genotoxicity can be measured by the ToxTracker® assay (Toxys, Leiden, the Netherlands) as further described herein.
(§2) Genotoxicity of examples and comparatives was evaluated by the ToxTracker® assay (Toxys, Leiden, the Netherlands). The ToxTracker assay is a panel of several validated Green Fluorescent Protein (GFP)-based mouse embryonic stem (mES) reporter cell lines that can be used to identify the biological reactivity and potential carcinogenic properties of newly developed compounds in a single test. This methodology uses a two step-approach.
(§3) In the first step a dose range finding was performed using wild-type mES cells (strain B4418). 20 different concentrations for each compound was tested, starting at 10 mM in DMSO as highest concentration and nineteen consecutive 2-fold dilutions.
(§4) Genotoxicity was evaluated at 10, 25 and 50% cytotoxicity in absence and presence of rat S9 liver extract-based metabolizing systems (aroclor1254-induced rats, Moltox, Boone, NC, USA). The independent cell lines were seeded in 96-well cell culture plates, 24 h after seeding the cells in the 96-well plates, fresh ES cell medium containing the diluted test substance was added to the cells. For each tested compound, five concentrations are tested in 2-fold dilutions. The highest sample concentration will induce significant cytotoxicity (50-70%). In case of no or low cytotoxicity, 10 mM or the maximum soluble mixture concentration is used as maximum test concentration. Cytotoxicity is determined by cell count after 24 h exposure using a Guava easyCyte 10HT flow cytometer (Millipore).
(§5) GFP reporter induction is always compared to a vehicle control treatment.
(§6) All compounds were tested in at least three completely independent repeat experiments. Positive reference treatment with cisplatin (DNA damage) were included in all experiments. Metabolic was evaluated by addition of S9 liver extract. Cells are exposed to five concentrations of the test compound in the presence of S9 and required co-factors (RegenSysA+B, Moltox, Boone, NC, USA) for 3 h. After washing, cells are incubated for 24 h in fresh ES cell medium. Induction of the GFP reporters is determined after 24 h exposure using a Guava easyCyte 10HT flow cytometer (Millipore). Only GFP expression in intact single cells is determined. Mean GFP fluorescence and cell concentrations in each well is measured, which is used for cytotoxicity assessment. Data was analyzed using ToxPlot software (Toxys, Leiden, the Netherlands). The induction levels reported are at compound concentrations that induce 10%, 25% and 50% cytotoxicity after 3 h exposure in the presence of S9 rat liver extract and 24 h recovery or alternatively after 24 h exposure when not in the presence of S9 rat liver extract.

[3] = test system: Bscl2-GFP reporter in mouse embryonic stem (mES) cells; assay: ToxTracker genotoxicity assay, Bscl2-GFP reporter induction
Procedure: as §1, §2, §3, §4, §5, §6

[4] = with S9 rat liver extract, concentration inducing 10% cytotoxicity, 3 h exposure, 24 h recovery
[5] = with S9 rat liver extract, concentration inducing 25% cytotoxicity, 3 h exposure, 24 h recovery
[6] = with S9 rat liver extract, concentration inducing 50% cytotoxicity, 3 h exposure, 24 h recovery
[7] = without S9 rat liver extract, concentration inducing 10% cytotoxicity, 24 h exposure
[8] = without S9 rat liver extract, concentration inducing 25% cytotoxicity, 24 h exposure
[9] = without S9 rat liver extract, concentration inducing 50% cytotoxicity, 24 h exposure

Row | SMILES | Genotoxicity test result (conclusion) [1] | Rtkn induction level [2, 4] [fold] | Rtkn induction level [2, 5] [fold] | Rtkn induction level [2, 6] [fold] | Rtkn induction level [2, 7] [fold] | Rtkn induction level [2, 8] [fold] | Rtkn induction level [2, 9] [fold] | Bscl 2 induction level [3, 4] [fold] | Bscl 2 induction level [3, 5] [fold] | Bscl 2 induction level [3, 6] [fold] | Bscl 2 induction level [3, 7] [fold] | Bscl 2 induction level [3, 8] [fold] | Bscl 2 induction level [3, 9] [fold]
1 | CCCCOCC(CN1CC1)OC(=O)NCCCCCC/N=c1\oc(=O)n(CCCCCCNC(=O)OC(COCCCC)CN2CC2)c(=O)n1CCCCCCNC(=O)OC(COCCCC)CN1CC1 (stereo not shown) [Ex. 5] | non-genotoxic | 1.0 | 0.9 | 1.0 | 1.0 | 1.1 | 1.0 | – | – | – | – | – | –
2 | CCCCOCC(CN1CC1)OC(=O)NCCCCCCn1c(=O)n(CCCCCCNC(=O)OC(COCCCC)CN2CC2)c(=O)n(CCCCCCNC(=O)OC(COCCCC)CN2CC2)c1=O (stereo not shown) [Ex. 1] | non-genotoxic | 1.0 | 1.1 | 1.1 | 1.0 | 1.0 | 0.9 | – | – | – | – | – | –
3 | CCCCCCCCCC(=O)OCC(CN1CC1)OC(=O)NCCCCCCn1c(=O)n(CCCCCCNC(=O)OC(COC(=O)CCCCCCCCC)CN2CC2)c(=O)n(CCCCCCNC(=O)OC(COC(=O)CCCCCCCCC)CN2CC2)c1=O (stereo not shown) [Ex. 3] | non-genotoxic | 1.3 | 1.5 | 1.5 | 1.3 | 1.5 | 1.5 | 1.1 | 1.2 | 1.2 | 1.1 | 1.2 | 1.4
4 | CC(CN1CC1)OC(=O)NCCCCCCn1c(=O)n(CCCCCCNC(=O)OC(C)CN2CC2)c(=O)n(CCCCCCNC(=O)OC(C)CN2CC2)c1=O (stereo not shown) [Comp. Ex. 3] | genotoxic | 1.3 | 2.1 | 2.2 | 1.3 | 1.8 | 1.9 | – | – | – | – | – | –
5 | CCCCOCC(CN1CC1)OC(=O)NC1CCC(CC2CCC(NC(=O)OC(COCCCC)CN3CC3)CC2)CC1 (stereo not shown) [Comp. Ex 4] | genotoxic | 1.1 | 1.6 | 1.9 | 1.2 | 1.5 | 2.1 | – | – | – | – | – | –
6 | O=C(CCN1CC1)OCC(CO)(COC(=O)CCN1CC1)COC(=O)CCN1CC1 [Comp Ex 5, pentaerythritol tris(3-(1-aziridinyl)propionate)] | genotoxic | – | – | – | – | – | – | – | – | – | – | – | –
7 | O=C(NCCCCCCn1c(=O)n(CCCCCCNC(=O)OCCN2CC2)c(=O)n(CCCCCCNC(=O)OCCN2CC2)c1=O)OCCN1CC1 [Comp. Ex. 2] | genotoxic | 2.0 | 3.4 | 3.0 | 1.7 | 2.4 | 2.8 | – | – | – | – | – | –

— patent US12378189B2, “Multi-aziridine compound” (priority 2020, dated 2025)
